{"source": "patent US20260034135A1", "about": "“USE OF N6-BENZYLAMINOPURINE AS AN APPETITE SUPPRESSANT” (THE GOVERNING COUNCIL OF THE UNIVERSITY OF TORONTO, priority 2022, published 2026)", "key": {"[1]": {"assay": "Peripheral fat mass by Bruker scan", "assay_type": "in vivo, CD-1 mice", "settings": "male CD-1, HFD, BAP emulsion 11 days, Bruker scan before and after", "description": "Male and female CD-1 mice were received at age 6-7 weeks and were acclimated on a chow diet for one week prior to experimentation. After acclimation to the facility, mice were switched to a 60% HFD. The male and female mice received HFD for 4 (male) and 5 or 16 (female) weeks prior to BAP exposure. The mice were then acclimated to the emulsion feeding protocol for 4 days prior to the start of BAP exposure using the method described in Kuster et al. (12). Two days prior to the start of the exposure period, a cohort of male mice underwent acute general anesthetic with isoflurane for baseline Bruker scanning to quantify peripheral fat mass. The mice were then weight-matched and randomly assigned to either the control or BAP group. During the exposure period, mice were restrained via scruffing (held at back of neck) and fed 200 μL of an emulsion containing 0.5% carboxymethyl cellulose and 50% honey with or without BAP at 2 hr prior to lights off at the facility daily.\nThe BAP concentrations were calibrated weekly to achieve a dosage of 300 mg/kg/day. All mice were kept on the 60% HFD throughout the exposure period. […] Hypothalamic collected from the mice were then used to isolate RNA and quantify gene expression using quantitative reverse transcription polymerase chain reaction (qRT-PCR)."}, "[2]": {"tested_on": "mHypoE-46 cell line", "assay": "Gene expression by qRT-PCR in mHypoE-46 hypothalamic cell line", "assay_type": "cell-based, mouse", "set-up": "insulin receptor subunit beta (Insrb) expression by qRT-PCR: dose or concentration left out as unconfirmed", "settings": "for effect of PKA inhibition on BAP effect on Npy expression: n=2", "experimental": "Hypothalamic neurons from embryonic and adult mice were previously immortalized to generate the clonal cell lines mHypoE-46, mHypoE-44, mHypoE-41, mHypoE-38, mHypoA-59, a FAC-sorted POMC/GFP mouse-derived cell line, mHypoA-POMC/GFP-2, and a mixed culture mHypoA-Bmal1-WT/F cell line (6, 13, 14). The mHypoE-46, mHypoE-44, and mHypoA-Bmal1-WT/F lines were cultured in DMEM containing 1000 mg/L glucose supplemented with 5% FBS and 1% pen/strep. The mHypoE-41, mHypoE-38, and mHypoA-59 cell lines were cultured in DMEM containing 4500 mg/L glucose supplemented with 2% FBS and 1% pen/strep. The mHypoA-POMC/GFP-2 line was cultured in DMEM containing 1000 mg/L glucose supplemented with 2% FBS and 1% pen/strep. All cells were maintained in 5% CO2 at 37° C. BAP was initially dissolved in DMSO solvent (vehicle control) to achieve 1000x the intended dose. The BAP solution was then diluted 1:1000 with the growth media used for the cell line. For co-treatment experiments, the vehicle control for ATP, UDP, and PKI was water, and for the H89 PKA inhibitor was DMSO. Neuropeptide gene expression levels were determined by qRT-PCR.\nFor cell culture experiments, total RNA was isolated using PureLink RNA isolation kit (Thermofisher Scientific, Burlington, ON, Canada) according to the manufacturer's instruction with on column DNase step (PureLink DNAse kit) or DNase I treatment to remove genomic DNA. For mouse experiments, total RNA was isolated using mirVana PARIS RNA and native protein isolation kit (Thermofisher Scientific). RNA quality and quantity were measured using Nanodrop 2000 and 500-1000 ng of complimentary DNA (cDNA) was synthesized with High Capacity cDNA Reverse Transcription kit (Applied biosystems, Thermofisher Scientific). Quantitative reverse transcription polymerase chain reaction (RT-qPCR) was performed with 12.5 ng of cDNA amplified with Platinum SYBR green qPCR SuperMix-UDG with ROX on an Applied Biosystems Prism 7900HT or PowerTrack Green Master Mix on an Applied Biosystems QuantStudio 5 and gene specific primers as per manufacturer's instructions (Table 1). Data was analyzed using […] and normalized to reference gene, either 60S ribosomal protein L7 (Rpl7) or Histone 3a (His)."}, "[3]": {"tested_on": "P2 receptors", "settings": "rats, via P2 receptors, modifying intracellular calcium levels and cGMP; cited from earlier work"}, "[4]": {"tested_on": "mHypoE-46 cell line", "assay": "RNA-sequencing (RNA-seq) of mHypoE-46 exposed to BAP", "assay_type": "cell-based, mouse", "settings": "100 μM BAP", "experimental": "To assess global mRNA gene expression changes, we exposed the mHypoE-46 line to 100 μM BAP for 4 and 16 h and assess mRNA expression via RNA-sequencing (RNA-seq). […] It is already known that a decrease in mTORC1 signaling results in a decrease in Npy through decreases in p70-S6K activity (18-20). […] Specifically, the gene expression of the upstream inhibitors of mTORC1, sestrin2 (Sesn2) (21) and tuberous sclerosis complex 2 (Tsc2) were both increased with BAP; whereas the gene expression of two downstream effectors inhibited by mTORC1, 4e-BP1 (Eif4ebp1) and ULK1 (Ulk1), were increased as well, indicating an overall negative regulation of mTORC1 activity (see FIG. 42A and 42B)."}, "[5]": {"settings": "100 μM BAP, validation of RNAseq (FIG. 42A 4 hr, 42B 16 hr)"}, "[6]": {"settings": "both 4 and 16 h, validated in mHypoE-46"}}}
{"smiles": "c1ccc(CNc2ncnc3nc[nH]c23)cc1", "note": "[BAP, N6-benzylaminopurine]", "values": [{"measurement": "net peripheral fat", "setting": "[1]", "result": "do not observe any significant changes"}, {"measurement": "peripheral fat mass percentage", "setting": "[1]", "result": "do not observe any significant changes"}, {"measurement": "effect of PKA inhibition on BAP effect on Npy expression", "setting": "[2]; 100 μM BAP + 1 μM H89, 16 hr", "result": "unable to block the effects of BAP on Npy expression"}, {"measurement": "effect of PKA inhibition on BAP effect on Npy expression", "setting": "[2]; 100 μM BAP + 10 μM PKI, 16 hr", "result": "unable to block the effects of BAP on Npy expression"}, {"measurement": "Npy expression under co-treatment with palmitate", "setting": "[2]; 100 μM BAP + 50 μM palmitate, 16 hr", "result": "rescues the palmitate-mediated increase in Npy expression"}, {"measurement": "Npy mRNA under co-treatment with ATP", "setting": "[2]; 100 μM BAP + 100 μM ATP, 16 hr", "result": "overcome this induction and supress Npy mRNA levels"}, {"measurement": "Npy mRNA under co-treatment with UDP", "setting": "[2]; 100 μM BAP + 100 μM UDP, 16 hr", "result": "still able to supress the gene"}, {"measurement": "Npy mRNA under co-treatment with UTP", "setting": "[2]; 100 μM BAP + 100 μM UTP, 16 hr, n=2 preliminary", "result": "still able to supress the gene"}, {"measurement": "PI3K subunit (Pik3r1) gene expression", "setting": "[2]; 100 μM BAP, 4 and 16 h", "result": "significantly increased"}, {"measurement": "Nadpk1 expression level", "setting": "[2]; 100 μM BAP, 16 h", "result": "significantly decreased"}, {"measurement": "Nadpk2 expression level", "setting": "[2]; 100 μM BAP, 16 h", "result": "not changed"}, {"measurement": "Agrp mRNA expression", "setting": "[2]; 100 μM BAP, 16 hr", "result": "increased"}, {"measurement": "Npy mRNA expression", "setting": "[2]; 100 μM BAP, 16 hr", "result": "supressed"}, {"measurement": "4e-BP1 (Eif4ebp1) gene expression", "setting": "[2]; [5]", "result": "increased"}, {"measurement": "ULK1 (Ulk1) gene expression", "setting": "[2]; [5]", "result": "increased"}, {"measurement": "sestrin2 (Sesn2) gene expression", "setting": "[2]; [5]", "result": "increased"}, {"measurement": "tuberous sclerosis complex 2 (Tsc2) gene expression", "setting": "[2]; [5]", "result": "increased"}, {"measurement": "Npy mRNA expression, time course", "setting": "[2]; 100 μM BAP, all time points tested: 2, 4, 8, 16, and 24 hr", "result": "significantly downregulate"}, {"measurement": "insulin receptor subunit beta (Insrb) expression by qRT-PCR", "setting": "[2]; BAP, 16 h", "result": "increased"}, {"measurement": "BAP dose at which magnitude of Npy downregulation plateaus", "setting": "[2]; dose curve, 16 hr", "result": 250, "unit": "µM"}, {"measurement": "lowest BAP concentration significantly decreasing Npy mRNA expression", "setting": "[2]; dose curve, 16 hr", "result": 50, "unit": "µM"}, {"measurement": "strength of atrial muscle contractions", "setting": "[3]", "result": "increase the strength of atrial muscle contractions"}, {"measurement": "4e-BPI (Eif4ebp I), RNA-seq data 4 h", "setting": "[4]; 4 h", "result": "↑"}, {"measurement": "S6K (Rps6kbI), RNA-seq data 4 h", "setting": "[4]; 4 h", "result": "ns"}, {"measurement": "Sestrin2 (Sesn2), RNA-seq data 4 h", "setting": "[4]; 4 h", "result": "↑"}, {"measurement": "TSC2 (Tsc2), RNA-seq data 4 h", "setting": "[4]; 4 h", "result": "ns"}, {"measurement": "ULK I (Ulk I), RNA-seq data 4 h", "setting": "[4]; 4 h", "result": "ns"}, {"measurement": "4e-BPI (Eif4ebp I), RNA-seq data 16 h", "setting": "[4]; 16 h", "result": "↑"}, {"measurement": "S6K (Rps6kbI), RNA-seq data 16 h", "setting": "[4]; 16 h", "result": "↓"}, {"measurement": "Sestrin2 (Sesn2), RNA-seq data 16 h", "setting": "[4]; 16 h", "result": "↑"}, {"measurement": "TSC2 (Tsc2), RNA-seq data 16 h", "setting": "[4]; 16 h", "result": "↑"}, {"measurement": "ULK I (Ulk I), RNA-seq data 16 h", "setting": "[4]; 16 h", "result": "↑"}, {"measurement": "early growth response protein 1 (Egr1) gene expression", "setting": "[4]; [6]", "result": "highly downregulated"}, {"measurement": "early growth response protein 3 (Egr3) gene expression", "setting": "[4]; [6]", "result": "highly downregulated"}, {"measurement": "c-fos gene expression", "setting": "[4]; validated in mHypoE-46", "result": "significantly downregulated"}, {"measurement": "c-jun gene expression", "setting": "[4]; validated in mHypoE-46", "result": "significantly downregulated"}]}
